From US11331314B2, “Amine substituted triazole derivatives and uses thereof” (Bayer Pharma Aktiengesellschaft, priority 2017, dated 2022)

What was measured:
human V1a receptor = human V1a receptor (Homo sapiens, UniProt P37288); assay: Cellular in vitro assay for determining vasopressin receptor activity, V1a receptor cell line (photoprotein luminescence); format: cell-based; conditions: for IC50: CHO cell line transfected with the human V1a receptor, agonist [Arg8]-vasopressin at EC50 concentration, read-out: IC50 hV1a; for ratio IC50 hV2/hV1a: selectivity ratio of the cellular IC50 values
Sequence of human V1a receptor (P37288 whole entry): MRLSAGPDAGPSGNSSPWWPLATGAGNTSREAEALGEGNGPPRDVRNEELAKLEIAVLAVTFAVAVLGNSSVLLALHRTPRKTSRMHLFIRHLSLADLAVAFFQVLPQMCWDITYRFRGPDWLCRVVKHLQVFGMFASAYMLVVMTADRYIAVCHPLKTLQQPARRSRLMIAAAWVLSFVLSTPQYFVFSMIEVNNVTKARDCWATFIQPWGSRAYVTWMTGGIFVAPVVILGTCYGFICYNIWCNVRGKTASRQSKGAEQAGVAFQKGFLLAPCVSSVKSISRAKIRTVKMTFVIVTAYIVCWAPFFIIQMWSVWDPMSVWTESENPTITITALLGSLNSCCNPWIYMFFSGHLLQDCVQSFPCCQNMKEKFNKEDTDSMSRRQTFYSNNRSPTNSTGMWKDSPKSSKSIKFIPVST
Method in brief: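 CHO K1 cells stably expressing human V1a receptor with aequorin photoprotein, loaded overnight with coelenterazine. Compounds preincubated 10 min at various concentrations, then challenged with [Arg^8]-vasopressin at EC50 concentration. Calcium-driven luminescence read immediately; IC50 values derived.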

human V2 receptor = target: T1, human V2 receptor (Homo sapiens, UniProt P30518); assay: Cellular in vitro assay for determining vasopressin receptor activity, V2 receptor cell line (CRE-luciferase); format: cell-based; conditions: CHO cell line transfected with the human V2 receptor; agonist [Arg8]-vasopressin at EC50 concentration; read-out: IC50 hV2
T1 construct: expressed in transfected cells; host or cells: CHO K1 (ATCC) expressing firefly luciferase under a CRE-responsive promoter
T1 sequence (P30518 whole entry): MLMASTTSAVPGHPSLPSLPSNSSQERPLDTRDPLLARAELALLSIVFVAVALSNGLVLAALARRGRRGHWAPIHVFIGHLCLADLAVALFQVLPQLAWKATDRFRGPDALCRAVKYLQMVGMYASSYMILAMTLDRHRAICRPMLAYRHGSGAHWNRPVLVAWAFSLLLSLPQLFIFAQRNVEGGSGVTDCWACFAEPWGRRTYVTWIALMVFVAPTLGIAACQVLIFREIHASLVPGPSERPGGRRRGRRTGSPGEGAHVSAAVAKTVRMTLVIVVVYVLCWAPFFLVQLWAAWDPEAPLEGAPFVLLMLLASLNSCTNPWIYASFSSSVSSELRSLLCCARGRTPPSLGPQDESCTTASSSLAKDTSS

Structure (SMILES) | IC50 (human V1a receptor) [nM] | ratio IC50 hV2/hV1a (human V1a receptor) | IC50 (human V2 receptor) [nM]
O=c1n(Cc2nc(N3CCS(=O)(=O)CC3)n(-c3ccccc3Cl)n2)nc(-c2ccc(Cl)cc2)n1C[C@H](O)C(F)(F)F [Example 55, 5-(4-Chlorophenyl)-2-{[1-(2-chlorophenyl)-5-(1,1-dioxidothiomorpholin-4-yl)-1H-1,2,4-triazol-3-yl]methyl}-4-[(2S)-3,3,3-trifluoro-2-hydroxypropyl]-2,4-dihydro-3H-1,2,4-triazol-3-one] | 0.39 | 67.1 | 26
NC(=O)[C@@H]1CCN(c2nc(Cn3nc(-c4ccc(Cl)cc4)n(C[C@H](O)C(F)(F)F)c3=O)nn2-c2ccccc2Cl)C1 [Example 56, (3R)-1-[1-(2-Chlorophenyl)-3-({3-(4-chlorophenyl)-5-oxo-4-[(2S)-3,3,3-trifluoro-2-hydroxypropyl]-4,5-dihydro-1H-1,2,4-triazol-1-yl}methyl)-1H-1,2,4-triazol-5-yl]pyrrolidine-3-carboxamide] | 0.73 | 7.7 | 5.65
NC(=O)[C@H]1CCN(c2nc(Cn3nc(-c4ccc(Cl)cc4)n(C[C@H](O)C(F)(F)F)c3=O)nn2-c2ccccc2Cl)C1 [Example 57, (3S)-1-[1-(2-Chlorophenyl)-3-({3-(4-chlorophenyl)-5-oxo-4-[(2S)-3,3,3-trifluoro-2-hydroxypropyl]-4,5-dihydro-1H-1,2,4-triazol-1-yl}methyl)-1H-1,2,4-triazol-5-yl]pyrrolidine-3-carboxamide] | 0.74 | 6.6 | 4.9
NC(=O)[C@@H]1CCCN1c1nc(Cn2nc(-c3ccc(Cl)cc3)n(C[C@H](O)C(F)(F)F)c2=O)nn1-c1ccccc1Cl [Example 58, 1-[1-(2-Chlorophenyl)-3-({3-(4-chlorophenyl)-5-oxo-4-[(2S)-3,3,3-trifluoro-2-hydroxypropyl]-4,5-dihydro-1H-1,2,4-triazol-1-yl}methyl)-1H-1,2,4-triazol-5-yl]-L-prolinamide] | 1.65 | 13.3 | 22
NC(=O)[C@H]1CCCN1c1nc(Cn2nc(-c3ccc(Cl)cc3)n(C[C@H](O)C(F)(F)F)c2=O)nn1-c1ccccc1Cl [Example 59, 1-[1-(2-Chlorophenyl)-3-({3-(4-chlorophenyl)-5-oxo-4-[(2S)-3,3,3-trifluoro-2-hydroxypropyl]-4,5-dihydro-1H-1,2,4-triazol-1-yl}methyl)-1H-1,2,4-triazol-5-yl]-D-prolinamide] | 2.3 | 17.2 | 39.5
NCCNc1nc(Cn2nc(-c3ccc(Cl)cc3)n(C[C@H](O)C(F)(F)F)c2=O)nn1-c1ccccc1Cl [Example 70, 2-({5-[(2-Aminoethyl)amino]-1-(2-chlorophenyl)-1H-1,2,4-triazol-3-yl}methyl)-5-(4-chlorophenyl)-4-[(2S)-3,3,3-trifluoro-2-hydroxypropyl]-2,4-dihydro-3H-1,2,4-triazol-3-one] | 0.9 | 24.4 | 22
CC(=O)NCCNc1nc(Cn2nc(-c3ccc(Cl)cc3)n(C[C@H](O)C(F)(F)F)c2=O)nn1-c1ccccc1Cl [Example 71, N-(2-{[1-(2-Chlorophenyl)-3-({3-(4-chlorophenyl)-5-oxo-4-[(2S)-3,3,3-trifluoro-2-hydroxypropyl]-4,5-dihydro-1H-1,2,4-triazol-1-yl}methyl)-1H-1,2,4-triazol-5-yl]amino}ethyl)acetamide] | 0.44 | 5.5 | 2.4
O=c1n(Cc2nc(N3CCNCC3)n(-c3ccccc3Cl)n2)nc(-c2ccc(Cl)cc2)n1C[C@H](O)C(F)(F)F [Example 72, 5-(4-Chlorophenyl)-2-{[1-(2-chlorophenyl)-5-(piperazin-1-yl)-1H-1,2,4-triazol-3-yl]methyl}-4-[(2S)-3,3,3-trifluoro-2-hydroxypropyl]-2,4-dihydro-3H-1,2,4-triazol-3-one] | 0.58 | 30.2 | 17.5
O=c1n(Cc2nc(NCC3CS(=O)(=O)C3)n(-c3ccccc3Cl)n2)nc(-c2ccc(Cl)cc2)n1C[C@H](O)C(F)(F)F [Example 73, 5-(4-Chlorophenyl)-2-{[1-(2-chlorophenyl)-5-{[(1,1-dioxidothietan-3-yl)methyl]amino}-1H-1,2,4-triazol-3-yl]methyl}-4-[(2S)-3,3,3-trifluoro-2-hydroxypropyl]-2,4-dihydro-3H-1,2,4-triazol-3-one] | 1.13 | 8.4 | 9.5
NC(=O)C1CN(c2nc(Cn3nc(-c4ccc(Cl)cc4)n(C[C@H](O)C(F)(F)F)c3=O)nn2-c2ccccc2Cl)C1 [Example 74, 1-[1-(2-Chlorophenyl)-3-({3-(4-chlorophenyl)-5-oxo-4-[(2S)-3,3,3-trifluoro-2-hydroxypropyl]-4,5-dihydro-1H-1,2,4-triazol-1-yl}methyl)-1H-1,2,4-triazol-5-yl]azetidine-3-carboxamide] | 0.48 | 7.5 | 3.6
CC(=O)N1CCN(c2nc(Cn3nc(-c4ccc(Cl)cc4)n(C[C@H](O)C(F)(F)F)c3=O)nn2-c2ccccc2Cl)CC1 [Example 75, 2-{[5-(4-Acetylpiperazin-1-yl)-1-(2-chlorophenyl)-1H-1,2,4-triazol-3-yl]methyl}-5-(4-chlorophenyl)-4-[(2S)-3,3,3-trifluoro-2-hydroxypropyl]-2,4-dihydro-3H-1,2,4-triazol-3-one] | 0.81 | 11.0 | 8.9
CC1(C)CN(c2nc(Cn3nc(-c4ccc(Cl)cc4)n(C[C@H](O)C(F)(F)F)c3=O)nn2-c2ccccc2Cl)CCN1 [Example 76, 5-(4-Chlorophenyl)-2-{[1-(2-chlorophenyl)-5-(3,3-dimethylpiperazin-1-yl)-1H-1,2,4-triazol-3-yl]methyl}-4-[(2S)-3,3,3-trifluoro-2-hydroxypropyl]-2,4-dihydro-3H-1,2,4-triazol-3-one] | 0.42 | 108.4 | 45
CC1(CNc2nc(Cn3nc(-c4ccc(Cl)cc4)n(C[C@H](O)C(F)(F)F)c3=O)nn2-c2ccccc2Cl)COC1 [Example 78, 5-(4-Chlorophenyl)-2-{[1-(2-chlorophenyl)-5-{[(3-methyloxetan-3-yl)methyl]amino}-1H-1,2,4-triazol-3-yl]methyl}-4-[(2S)-3,3,3-trifluoro-2-hydroxypropyl]-2,4-dihydro-3H-1,2,4-triazol-3-one] | 0.79 | 2.1 | 1.63
COCCNc1nc(Cn2nc(-c3ccc(Cl)cc3)n(C[C@H](O)C(F)(F)F)c2=O)nn1-c1ccccc1Cl [Example 79, 5-(4-Chlorophenyl)-2-({1-(2-chlorophenyl)-5-[(2-methoxyethyl)amino]-1H-1,2,4-triazol-3-yl}methyl)-4-[(2S)-3,3,3-trifluoro-2-hydroxypropyl]-2,4-dihydro-3H-1,2,4-triazol-3-one] | 0.32 | 6.8 | 2.19
O=c1n(Cc2nc(NCCO)n(-c3ccccc3Cl)n2)nc(-c2ccc(Cl)cc2)n1C[C@H](O)C(F)(F)F [Example 80, 5-(4-Chlorophenyl)-2-({1-(2-chlorophenyl)-5-[(2-hydroxyethyl)amino]-1H-1,2,4-triazol-3-yl}methyl)-4-[(2S)-3,3,3-trifluoro-2-hydroxypropyl]-2,4-dihydro-3H-1,2,4-triazol-3-one] | 0.36 | 7.8 | 2.79
O=c1n(Cc2nc(N3CC(F)(F)C3)n(-c3ccccc3Cl)n2)nc(-c2ccc(Cl)cc2)n1C[C@H](O)C(F)(F)F [Example 81, 5-(4-Chlorophenyl)-2-{[1-(2-chlorophenyl)-5-(3,3-difluoroazetidin-1-yl)-1H-1,2,4-triazol-3-yl]methyl}-4-[(2S)-3,3,3-trifluoro-2-hydroxypropyl]-2,4-dihydro-3H-1,2,4-triazol-3-one] | 1.6 | 11.0 | 17.7
CC(C)(O)CNc1nc(Cn2nc(-c3ccc(Cl)cc3)n(C[C@H](O)C(F)(F)F)c2=O)nn1-c1ccccc1Cl [Example 82, 5-(4-Chlorophenyl)-2-({1-(2-chlorophenyl)-5-[(2-hydroxy-2-methylpropyl)amino]-1H-1,2,4-triazol-3-yl}methyl)-4-[(2S)-3,3,3-trifluoro-2-hydroxypropyl]-2,4-dihydro-3H-1,2,4-triazol-3-one] | 0.86 | 7.5 | 6.47
O=c1n(Cc2nc(N3CCOCC3)n(-c3ccccc3Cl)n2)nc(-c2ccc(Cl)cc2)n1C[C@H](O)C(F)(F)F [Example 83, 5-(4-Chlorophenyl)-2-{[1-(2-chlorophenyl)-5-(morpholin-4-yl)-1H-1,2,4-triazol-3-yl]methyl}-4-[(2S)-3,3,3-trifluoro-2-hydroxypropyl]-2,4-dihydro-3H-1,2,4-triazol-3-one] | 0.56 | 25.7 | 14.3
CN(CCO)c1nc(Cn2nc(-c3ccc(Cl)cc3)n(C[C@H](O)C(F)(F)F)c2=O)nn1-c1ccccc1Cl [Example 84, 5-(4-Chlorophenyl)-2-({1-(2-chlorophenyl)-5-[(2-hydroxyethyl)(methyl)amino]-1H-1,2,4-triazol-3-yl}methyl)-4-[(2S)-3,3,3-trifluoro-2-hydroxypropyl]-2,4-dihydro-3H-1,2,4-triazol-3-one] | 0.83 | 14.4 | 12
COCCN(C)c1nc(Cn2nc(-c3ccc(Cl)cc3)n(C[C@H](O)C(F)(F)F)c2=O)nn1-c1ccccc1Cl [Example 85, 5-(4-Chlorophenyl)-2-({1-(2-chlorophenyl)-5-[(2-methoxyethyl)(methyl)amino]-1H-1,2,4-triazol-3-yl}methyl)-4-[(2S)-3,3,3-trifluoro-2-hydroxypropyl]-2,4-dihydro-3H-1,2,4-triazol-3-one] | 0.58 | 16.9 | 9.76
